In brackets after ≈: the same amount, converted by molar mass. Like-named read-outs stand apart in the source and are kept apart here.
Key:
[1] = system: T47D (human breast cancer); assay: Antiproliferative assay in vitro (SRB), T47D; format: cell-based; details: for IC50: read-out: Cytotoxic activity IC50, T47D
Procedure: (§1) The tested cell lines were obtained from the American Type Culture Collection (Rockville, Maryland, USA) and maintained at the Cell Culture Collection of the Institute of Immunology and Experimental Therapy (Wrocław, Poland). The cells were seeded in 96-well plates (Sarstedt, USA) at a density of 10^4 cells per well in 100 µL of culture medium overnight. […] The normal mouse fibroblasts BALB3T3 was cultured in Dulbecco’s modified Eagle’s medium (Sigma-Aldrich, Chemie GmbH, Steinheim, Germany) supplemented with 2 mM glutamine (Sigma-Aldrich, Chemie GmbH, Steinheim, Germany) and 10 % fetal calf serum FBS (Sigma-Aldrich, Chemie GmbH, Steinheim, Germany). The all culture media were supplemented with streptomycin (100 µg/mL) and penicillin (100 U/mL) (both antibiotics from Polfa, Tarchomin, Poland). The cell cultures were maintained at 37 °C in humid atmosphere saturated with 5 % CO2. This technique as first was described by Skehan et al. in [1990]. The SRB assay was performed after 96 h exposure of the cultured cells to varying concentrations (ranging from 1 to 100 µg/mL) of the tested substances. The reported derivatives as well as betulin 1 were dissolved in 10 % dimethyl sulfoxide (DMSO) to concentration of 1 mg/mL, and next diluted in culture medium to reach the required concentrations. […] The cells fastened to the plastic were fixed mildly layering cold 50 % TCA (trichloroacetic acid, Aldrich-Chemie, Germany) on the top of the culture medium in each well. The plates were incubated at 4 °C for 1 h and then washed five times with tap water. The cells fixed with TCA were stained with 0.4 % sulforhodamine B (SRB, Sigma, Germany) dissolved in 1 % acetic acid (POCH, Gliwice, Poland) for 30 min. The unbound dye was removed by rinsing four times with 1 % acetic acid. The protein-bound dye was extracted with 10 mM unbuffered tris base (POCH, Gliwice, Poland) and then determined the optical density at 540 nm in a computer-interfaced, 96-well microtiter plate reader Multiscan RC photometer (Labsystems, Helsinki, Finland). The compounds in given concentration were examined in triplicates in each experiment which was repeated 3–5 times. The results of cytotoxic activity in vitro were expressed as an IC50 in µg/mL.

[2] = system: CCRF/CEM (human leukemia); assay: Antiproliferative assay in vitro (MTT), CCRF/CEM; format: cell-based; details: for IC50: read-out: Cytotoxic activity IC50, CCRF/CEM
Procedure: (§2) The tested cell lines were obtained from the American Type Culture Collection (Rockville, Maryland, USA) and maintained at the Cell Culture Collection of the Institute of Immunology and Experimental Therapy (Wrocław, Poland). The cells were seeded in 96-well plates (Sarstedt, USA) at a density of 10^4 cells per well in 100 µL of culture medium overnight. […] The normal mouse fibroblasts BALB3T3 was cultured in Dulbecco’s modified Eagle’s medium (Sigma-Aldrich, Chemie GmbH, Steinheim, Germany) supplemented with 2 mM glutamine (Sigma-Aldrich, Chemie GmbH, Steinheim, Germany) and 10 % fetal calf serum FBS (Sigma-Aldrich, Chemie GmbH, Steinheim, Germany). The all culture media were supplemented with streptomycin (100 µg/mL) and penicillin (100 U/mL) (both antibiotics from Polfa, Tarchomin, Poland). The cell cultures were maintained at 37 °C in humid atmosphere saturated with 5 % CO2. The MTT assay was used for the cytotoxicity screening against leukemia cells growing in suspension culture. This assay was performed after 96 h of the leukemia cells to varying concentrations (ranging from 1 to 100 µg/mL) of the tested substances. The derivatives of betulin were dissolved in 10 % DMSO to concentration of 1 mg/mL, and next diluted in culture medium to reach the required concentrations. […] During the last 3–4 h of incubation 20 µl of MTT solution were added to each well (MTT: 3-(4,5-dimethylthiazol-2-yl)-2,5-diphenyl tetrazolium bromide; stock solution: 5 mg/mL). The pale yellow MTT is reduced to a navy blue formazan in the mitochondria of living cells. At the end of incubation time, 80 µL of the lysing mixture was added to each well (lysing mixture: 225 mL dimethylformamide, 67.5 g sodium dodecyl sulfate and 275 mL of distilled water). After 24 h are formed the crystals of formazan, which are insoluble in aqueous solutions. The formazan crystals had been dissolved. The optical densities were read on a Multiskan RC photometer at 570 nm wavelength. The compounds in given concentration were examined in triplicates in each experiment which was repeated 3–5 times. The results of cytotoxic activity in vitro were expressed as an IC50 in µg/mL.

SW707 (human colorectal) = assay: Antiproliferative assay in vitro (SRB), SW707; format: cell-based; details: for IC50: read-out: Cytotoxic activity IC50, SW707
Procedure: as §1

P388 (mouse leukemia) = assay: Antiproliferative assay in vitro (MTT), P388; format: cell-based; details: murine P388, 96 h exposure, 1 to 100 µg/mL, Neg = negative in the concentration used; for IC50: Mus musculus, read-out: Cytotoxic activity IC50, P388
Procedure: as §2

[3] = Antiproliferative assay in vitro (SRB), BALB3T3; format: cell-based, mouse; details: mouse; murine BALB3T3 normal fibroblasts; 96 h exposure; 1 to 100 µg/mL; Neg = negative in the concentration used; read-out: Cytotoxic activity IC50, BALB3T3
Procedure: as §1

[4] = system: HL-60 (human promyelocytic leukemia); assay: Antiproliferative assay in vitro (MTT), HL-60; format: cell-based; details: for IC50: Homo sapiens, read-out: Cytotoxic activity IC50, HL-60
Procedure: as §2

[5] = system: BALB3T3 normal mouse fibroblasts; assay: Antiproliferative assay in vitro (SRB), BALB3T3; format: cell-based; details: murine BALB3T3 normal fibroblasts; 96 h exposure; 1 to 100 µg/mL; Neg = negative in the concentration used
Procedure: as §1

[6] = human T47D, 96 h exposure, 1 to 100 µg/mL, Neg = negative in the concentration used
[7] = human CCRF/CEM, 96 h exposure, 1 to 100 µg/mL, Neg = negative in the concentration used
[8] = human SW707, 96 h exposure, 1 to 100 µg/mL, Neg = negative in the concentration used
[9] = HL-60 cancer cell line, 96 h exposure

Compound	IC50 [1, 6]	IC50 [2, 7]	IC50 (P388 (mouse leukemia))	IC50 [4, 9]	melting point	further results
C=CC(=O)OC[C@]12CC[C@@H](C(=C)C)C1C1CCC3[C@@]4(C)CC[C@H](O)C(C)(C)C4CC[C@@]3(C)[C@]1(C)CC2 (stereo partly drawn) [Compound 4, 28-O-(2-Propenoyl)betulin]	7.1 ± 2.7 µg/mL (≈ 14.3 µM)	19.6 ± 9.5 µg/mL (≈ 39.5 µM)	9.9 ± 5.9 µg/mL (≈ 19.9 µM)	18.8 ± 4.8 µg/mL (≈ 37.8 µM)	117 to 121 °C	IC50 (SW707 (human colorectal); [8]): 29.6 ± 4.2 µg/mL (≈ 59.6 µM); IC50 at 96 h [3]: 24.3 ± 6.9 µg/mL (≈ 48.9 µM)
C=C(C)[C@@H]1CC[C@]2(CO)CC[C@]3(C)[C@H](CC[C@@H]4[C@@]5(C)CC[C@H](O)C(C)(C)[C@@H]5CC[C@]43C)[C@@H]12 [Betulin 1, lup-20(29)-ene-3β,28-diol, reference compound]	–	–	–	–	–	IC50 ([1]; Homo sapiens, T47D, 96 h): 32.4 ± 10.7 µg/mL (≈ 73.2 µM); IC50 ([2]; Homo sapiens, CCRF-CEM, 96 h): 10.9 ± 5.5 µg/mL (≈ 24.6 µM); IC50 (SW707 (human colorectal); Homo sapiens, SW707, 96 h): 22.9 ± 15.4 µg/mL (≈ 51.7 µM); IC50 at 96 h [3]: 47.3 ± 7.9 µg/mL (≈ 107 µM); IC50 ([4]; HL-60, 96 h): 7.2 ± 0.5 µg/mL (≈ 16.3 µM)
C=C(C)[C@@H]1CC[C@]2(COC(=O)OCC#CC)CC[C@]3(C)C(CCC4[C@@]5(C)CCC(=O)C(C)(C)C5CC[C@]43C)C12 (stereo partly drawn) [Compound 26, 28-O-(2-Butynyloxycarbonyl)betulone]	79.2 ± 5.2 µg/mL (≈ 148 µM)	47.6 ± 5.7 µg/mL (≈ 88.7 µM)	18.3 ± 12.9 µg/mL (≈ 34.1 µM)	–	150 to 152 °C	Cytotoxic activity IC50, SW707 (SW707 (human colorectal); [8]): Neg; Cytotoxic activity IC50, BALB3T3 [5]: Neg
C#CCOC(=O)OC[C@]12CC[C@@H](C(=C)C)C1C1CCC3[C@@]4(C)CC[C@H](O)C(C)(C)C4CC[C@@]3(C)[C@]1(C)CC2 (stereo partly drawn) [Compound 12]	–	–	–	3.7 ± 0.5 µg/mL (≈ 7.05 µM)	–	–
C=C(C)[C@@H]1CC[C@]2(COC(=O)C#Cc3ccccc3)CC[C@]3(C)C(CCC4[C@@]5(C)CCC(=O)C(C)(C)C5CC[C@]43C)C12 (stereo partly drawn) [Compound 19, 28-O-Phenylpropynoylbetulone]	–	–	–	–	82 to 85 °C	Cytotoxic activity IC50, T47D [1, 6]: Neg; Cytotoxic activity IC50, CCRF/CEM [2, 7]: Neg; Cytotoxic activity IC50, SW707 (SW707 (human colorectal); [8]): Neg; Cytotoxic activity IC50, P388 (P388 (mouse leukemia)): Neg; Cytotoxic activity IC50, BALB3T3 [5]: Neg
C=C(C)[C@@H]1CC[C@]2(COC(=O)C#CC3CC3)CC[C@]3(C)C(CCC4[C@@]5(C)CC[C@H](O)C(C)(C)C5CC[C@]43C)C12 (stereo partly drawn) [Compound 6, 28-O-(3-Cyclopropyl-2-propynoyl)betulin]	33.6 ± 6.3 µg/mL (≈ 62.8 µM)	16.5 ± 8.5 µg/mL (≈ 30.9 µM)	8.4 ± 9.2 µg/mL (≈ 15.7 µM)	44.8 ± 10.9 µg/mL (≈ 83.8 µM)	108 to 113 °C	Cytotoxic activity IC50, SW707 (SW707 (human colorectal); [8]): Neg; Cytotoxic activity IC50, BALB3T3 [5]: Neg
C#CCOC(=O)OC[C@]12CC[C@@H](C(=C)C)C1C1CCC3[C@@]4(C)CCC(=O)C(C)(C)C4CC[C@@]3(C)[C@]1(C)CC2 (stereo partly drawn) [Compound 24, 28-O-Propargyloxycarbonylbetulone]	23.3 ± 3.5 µg/mL (≈ 44.6 µM)	18.7 ± 6.6 µg/mL (≈ 35.8 µM)	30.3 ± 11.8 µg/mL (≈ 58 µM)	11.6 ± 4.9 µg/mL (≈ 22.2 µM)	173 to 175 °C	Cytotoxic activity IC50, SW707 (SW707 (human colorectal); [8]): Neg; Cytotoxic activity IC50, BALB3T3 [5]: Neg
C=CCOC(=O)OC[C@]12CC[C@@H](C(=C)C)C1C1CCC3[C@@]4(C)CC[C@H](O)C(C)(C)C4CC[C@@]3(C)[C@]1(C)CC2 (stereo partly drawn) [Compound 11, 28-O-Allyloxycarbonylbetulin]	–	–	–	14.9 ± 3.9 µg/mL (≈ 28.3 µM)	–	–
C=CCOC(=O)OC[C@]12CC[C@@H](C(=C)C)C1C1CCC3[C@@]4(C)CCC(=O)C(C)(C)C4CC[C@@]3(C)[C@]1(C)CC2 (stereo partly drawn) [Compound 23, 28-O-Allyloxycarbonylbetulone]	–	–	–	28.4 ± 1.6 µg/mL (≈ 54.1 µM)	123 to 125 °C	–
C=C(C)[C@@H]1CC[C@]2(COC(=O)C#CC3CC3)CC[C@]3(C)C(CCC4[C@@]5(C)CCC(=O)C(C)(C)C5CC[C@]43C)C12 (stereo partly drawn) [Compound 18, 28-O-(3-Cyclopropyl-2-propynoyl)betulone]	–	–	–	33.9 ± 5.5 µg/mL (≈ 63.6 µM)	93 to 97 °C	–
C=C(C)[C@@H]1CC[C@]2(COC(=O)C=CC)CC[C@]3(C)C(CCC4[C@@]5(C)CC[C@H](O)C(C)(C)C5CC[C@]43C)C12 (stereo partly drawn) [Compound 8, 28-O-(2-Butenoyl)betulin]	29.9 ± 9.3 µg/mL (≈ 58.5 µM)	28 ± 21.6 µg/mL (≈ 54.8 µM)	5.1 ± 4.9 µg/mL (≈ 9.98 µM)	–	182 to 184 °C	IC50 (SW707 (human colorectal); [8]): 32 ± 4.2 µg/mL (≈ 62.6 µM); IC50 at 96 h [3]: 25.6 ± 1.8 µg/mL (≈ 50.1 µM)
C=C(C)[C@@H]1CC[C@]2(COC(=O)C#CC)CC[C@]3(C)C(CCC4[C@@]5(C)CCC(=O)C(C)(C)C5CC[C@]43C)C12 (stereo partly drawn) [Compound 21, 28-O-(2-Butynoyl)betulone]	–	–	–	29.5 ± 5.4 µg/mL (≈ 58.2 µM)	92 to 94 °C	–
C#CC(=O)OC[C@]12CC[C@@H](C(=C)C)C1C1CCC3[C@@]4(C)CCC(=O)C(C)(C)C4CC[C@@]3(C)[C@]1(C)CC2 (stereo partly drawn) [Compound 17, 28-O-Propynoylbetulone]	–	–	–	0.3 ± 0.06 µg/mL (≈ 0.609 µM)	93 to 96 °C	fold potent than betulin 1 against HL-60 ([4]; relative to betulin 1, HL-60): 24 fold
C=C(C)[C@@H]1CC[C@]2(COC(=O)CC)CC[C@]3(C)C(CCC4[C@@]5(C)CCC(=O)C(C)(C)C5CC[C@]43C)C12 (stereo partly drawn) [Compound 15, 28-O-Propanoylbetulone]	–	–	–	33.7 ± 5.5 µg/mL (≈ 67.8 µM)	–	–
C=CC(=O)OC[C@]12CC[C@@H](C(=C)C)C1C1CCC3[C@@]4(C)CCC(=O)C(C)(C)C4CC[C@@]3(C)[C@]1(C)CC2 (stereo partly drawn) [Compound 16, 28-O-(2-Propenoyl)betulone]	–	–	–	5 ± 1.3 µg/mL (≈ 10.1 µM)	–	–
C=C(C)[C@@H]1CC[C@]2(COC(=O)OCCC)CC[C@]3(C)C(CCC4[C@@]5(C)CC[C@H](O)C(C)(C)C5CC[C@]43C)C12 (stereo partly drawn) [Compound 10, 28-O-Propoxycarbonylbetulin]	–	–	–	26.8 ± 2.5 µg/mL (≈ 50.7 µM)	–	–
C#CCCOC(=O)OC[C@]12CC[C@@H](C(=C)C)C1C1CCC3[C@@]4(C)CCC(=O)C(C)(C)C4CC[C@@]3(C)[C@]1(C)CC2 (stereo partly drawn) [Compound 25, 28-O-(3-Butynyloxycarbonyl)betulone]	29.8 ± 10.7 µg/mL (≈ 55.5 µM)	25.2 ± 4.6 µg/mL (≈ 46.9 µM)	3.8 ± 1.9 µg/mL (≈ 7.08 µM)	–	81 to 84 °C	Cytotoxic activity IC50, SW707 (SW707 (human colorectal); [8]): Neg; Cytotoxic activity IC50, BALB3T3 [5]: Neg
C=C(C)[C@@H]1CC[C@]2(COC(=O)OCCC)CC[C@]3(C)C(CCC4[C@@]5(C)CCC(=O)C(C)(C)C5CC[C@]43C)C12 (stereo partly drawn) [Compound 22, 28-O-Propoxycarbonylbetulone]	–	–	–	21.4 ± 2.1 µg/mL (≈ 40.6 µM)	76 to 78 °C	–
